Experimental findings from patent publication US11590199B2, “Use of an ABC transporter peptide inhibitor” (HUNAN UNIVERSITY OF SCIENCE AND ENGINEERING, priority 2021, dated 2023) are described below.

For orientation: IC50 means the concentration that inhibits the measured activity by half.

The subject of assay [1] is HEK293/pcDNA3.1 parental cell line. As to the kind of experiment: MDR reversal study (MTT), parental HEK293/pcDNA3.1. The format is cell-based. To be noted: for IC50 / RF: chemotherapeutic drug alone.
In assay [2] the test system is KB-3-1 parental cell line. As to the kind of experiment: MDR reversal study (MTT), parental KB-3-1. The format is cell-based. To be noted: chemotherapeutic drug alone.
Assay [3] concerns drug-induced ABCC1-overexpressing cancer cell line KB-CV60. Briefly: MDR reversal study (MTT), drug-induced ABCC1-overexpressing cells. The format is cell-based. To be noted: chemotherapeutic drug alone, Table 4.
The test system of another assay is parental cells (KB-3-1). Briefly: cells. To be noted: Homo sapiens.
Assay [4] has as its system transfected ABCC1-overexpressing cell line HEK293/ABCC1. Briefly: MDR reversal study (MTT), transfected ABCC1-overexpressing cells. It counts as cell-based. The following applies: chemotherapeutic drug alone.
For assay [5], the system named is drug-induced ABCB1-overexpressing cancer cell line KB-C2. As to the kind of experiment: MDR reversal study (MTT), drug-induced ABCB1-overexpressing cells. The following applies: chemotherapeutic drug alone.

Consider `CN(C)C(=O)CCSC(SCCC(=O)O)c1cccc(/C=C/c2ccc3ccc(Cl)cc3n2)c1` (stereo not shown) [MK571], for which the RF of cisplatin in assay [1] (cisplatin + MK571 (5 μM)) is reported as 0.99. Moreover, the RF of vincristine in assay [1] (vincristine + MK571 (5 μM)) is given as 1.02.

Turning to `COc1cccc2c1C(=O)c1c(O)c3c(c(O)c1C2=O)C[C@@](O)(C(=O)CO)C[C@@H]3O[C@H]1C[C@H](N)[C@H](O)[C@H](C)O1` [Doxorubicin], the RF in assay [2] (Table 2) amounted to 1.00.

Turning to `CC[C@]1(O)C[C@H]2CN(CCc3c([nH]c4ccccc34)[C@@](C(=O)OC)(c3cc4c(cc3OC)N(C=O)[C@H]3[C@@](O)(C(=O)OC)[C@H](OC(C)=O)[C@]5(CC)C=CCN6CC[C@]43[C@@H]65)C2)C1` [Vincristine], the RF in assay [3] is reported as 169.05; in assay [1] (Table 5) it was 1.00; in assay [2] (Table 4), 1.00; in assay [4], 19.79. Also, the IC50 turned out to be 137 nM in assay [1] (Homo sapiens, Table 5); 95 nM in assay [2] (Homo sapiens, 72 h, Table 4); 95 nM in the assay with parental cells (KB-3-1).

Turning to `N.N.[Cl][Pt][Cl]` [Cisplatin], the 50% inhibitory concentration (IC50) in assay [3] amounted to 2230 nM; in assay [1] (Table 3) it was 2210 ± 541 nM; in assay [1] (Table 5), 2210 nM; in assay [2] (Table 2), 1790 ± 476 nM; in assay [2] (Table 4), 1790 nM; in assay [4], 2240 nM. Further, the RF in assay [3] is 1.25; in assay [1] (Table 3), 1.00; in assay [1] (Table 5), 1.00; in assay [5], “± 0.428 (1.13)”; in assay [2] (Table 2), 1.00; in assay [2] (Table 4), 1.00. In addition, in assay [4], the RF is recorded as 1.01.

For `CC(=O)O[C@H]1C(=O)[C@@]2(C)[C@H]([C@H](OC(=O)c3ccccc3)[C@]3(O)C[C@H](OC(=O)[C@H](O)[C@@H](NC(=O)c4ccccc4)c4ccccc4)C(C)=C1C3(C)C)[C@]1(OC(C)=O)CO[C@@H]1C[C@@H]2O` [Paclitaxel], the RF in assay [1] (Table 3) and in assay [2] (Table 2) was 1.00 each time.
